Experimental data published in patent US11576903B2, “Amorphous kinase inhibitor formulations and methods of use thereof” (Deciphera Pharmaceuticals, LLC, priority 2019, dated 2023).
In brackets after ≈: the same amount, converted by molar mass.

How the values were obtained:
[1] = Pharmacokinetic study after oral administration to rats; conditions: rat, in vivo, 10 mg/kg (Compound 1 basis), oral suspension
Procedure: Studies comparing the pharmacokinetics of crystalline Compound 1 and solid dispersion of amorphous Compound 1 (25%) as prepared in Example 1 were conducted in rats. The dose in both studies were 10 mg/kg (Compound 1 basis). Rats were administered Crystalline Compound 1 as an oral suspension in a vehicle of 20% Captisol/0.4% HPMC at pH 2. Rats were administered amorphous Compound 1 as an oral suspension using in a 0.5% Methocel vehicle.

[2] = Kinetic aqueous solubility at select pH; type: physicochemical; conditions: aqueous medium, kinetic from dmso stock, 25° C.
Procedure: Solubility of a solid dispersion of amorphous Compound 1 (25%)/HPMCAS-HG as prepared in Example 1, at select pH values was evaluated.

**Q.** Which AUC(0-inf) [1] does the source give for `CCn1c(=O)c(-c2cc(NC(=O)Nc3ccccc3)c(F)cc2Br)cc2cnc(NC)cc21` [Crystalline Compound 1] here?
**A.** The AUC(0-inf) was 131 ng·h/mL.

**Q.** And the AUC(0-t) [1]?
**A.** The AUC(0-t) was 111 ng·h/mL.

**Q.** And the Cmax [1]?
**A.** The Cmax was 20.2 ng/mL.

**Q.** And the Tmax [1]?
**A.** Its Tmax is 1.67 h.

**Q.** What about the half-life [1] of the same compound?
**A.** Its half-life is 8.76 h.

**Q.** What about the solubility kinetic ([2]; aqueous buffer, pH 6.5, aqueous) of the same compound?
**A.** Its solubility kinetic is 1 µg/mL (≈ 1.96 µM).

**Q.** And the solubility kinetic ([2]; simulated gastric fluid, pH 2, aqueous)?
**A.** The solubility kinetic was 6 µg/mL (≈ 11.8 µM).
